Source: paper PMC3541985, “Improvement of Catalytic Efficiency, Thermo-stability and Dye Decolorization Capability of Pleurotus ostreatus IBL-02 laccase by Hydrophobic Sol Gel Entrapment” (Chemistry Central Journal, 2012)

Tested on: T1, P. ostreatus IBL-02 laccase
T1 construct: gene pox2
Details: free (not immobilised) enzyme; ABTS varied 0.1-1 mM, so the printed unit mM is doubtful; standard assay malonate buffer pH 4.5, 25°C

Km: 33 mM
Compound: CCn1c(=NN=c2sc3cc(S(=O)(=O)O)ccc3n2CC)sc2cc(S(=O)(=O)O)ccc21 [ABTS, 2, 2′-azino-bis-3-ethylbenzothiazoline-6-sulfonic acid]
